# Laboratory results as given in patent US20250154154A1 (Relay Binney Street, 2nd Floor, priority 2020, published 2025).
# Target: SRC (Homo sapiens, UniProt P12931)
# Assay: SRC Biochemical Assay Protocol (microfluidic mobility shift assay, FLPeptide4 substrate)
# Method: SRC Biochemical Assay Protocol
# Src biochemical kinase activity was measured using a surrogate fluorescent peptide substrate [FLPeptide4; 5-FAM-EGIYGVLFKKK-CONH2 (PerkinElmer Cat. No. 760348)] with a microfluidic mobility shift assay. Reactions were performed in 384-well flat bottom polystyrene microplates (Corning Cat. No. 3570) at a final volume of 20 μL in 50 mM HEPES pH 7.4, 1 mM EGTA, 10 mM MgCl2, 0.01% Brij-35, 2 mM DTT, 0.05% BSA, 1% DMSO. Inhibition experiments were performed with compounds of the invention varying from 0.0017-100 μM with 0.26 nM SRC, 1.5 μM FLPeptide4, and 50 μM ATP. Specifically, 15 μl 1.3× mixtures of SRC+FLPeptide4+compounds were preincubated for 30 minutes at room temperature followed by addition of 5 μL 4×ATP. Reactions were carried out for 90 minutes then quenched with 40 μl 500 mM EDTA. Phosphorylated peptide product was measured with a mobility shift assay using a LabChip® EZ Reader system (PerkinElmer Cat. No. 122919). Inhibition ratios were calculated relative to neutral controls and IC50 values were obtained from dose response data fitted to a 4-parameter logistic model.
row,IC50,Molecule
1,1000 to 10000 nM,C=CC(=O)N1CCC(C#Cc2c(-c3cnc(Oc4ccccc4)nc3)c3c(N)ncnc3n2C(C)C)CC1 [Example I-13]
2,≤ 10 nM,CC(C)n1c(C#CC2(O)CCN(C(=O)/C=C/CN(C)C)CC2)c(-c2ccc(Oc3ccccc3)cc2)c2c(N)ncnc21 [III-24]
3,10 to 1000 nM,C=CC(=O)N1CCC(C#Cc2c(-c3ccc(Nc4cccc(C)n4)cc3)c3c(N)ncnc3n2C(C)C)CC1 [Example I-22]
4,≤ 10 nM,"CC(C)n1c(C#CC2CCN(C)CC2)c(-c2ccc(Oc3ccccc3)cc2)c2c(N)ncnc21 [II-141, 7-isopropyl-6-((1-methylpiperidin-4-yl)ethynyl)-5-(4-phenoxyphenyl)-7H-pyrrolo[2,3-d]pyrimidin-4-amine]"
5,≤ 10 nM,C=CC(=O)N1CCC(N2CC(C#Cc3c(-c4ccc(Oc5ccccc5)c5c4OCO5)c4c(N)ncnc4n3C)C2)CC1 [III-85]
6,10 to 1000 nM,COc1cc(-c2c(C#CC3CN(C)C3)n(C)c3ncnc(N)c23)ccc1Oc1cccc(C)n1 [III-86]
7,10 to 1000 nM,CN(C)C/C=C/C(=O)Nc1ncnc2c1c(-c1ccc(Oc3ccccc3)cc1)c(C#CC1CNC1)n2C1CCOC1 (stereo not drawn) [III-9]
8,10 to 1000 nM,C=CC(=O)N1CCC(C#Cc2c(-c3ccc(Nc4ccccn4)cc3)c3c(N)ncnc3n2C(C)C)CC1 [Example I-9]
9,≤ 10 nM,"CC(C)n1c(C#CC2CCNC2)c(-c2ccc(Oc3ccccc3)cc2)c2c(N)ncnc21 (stereo not drawn) [II-157, 7-isopropyl-5-(4-phenoxyphenyl)-6-(pyrrolidin-3-ylethynyl)-7H-pyrrolo[2,3-d]pyrimidin-4-amine]"
10,10 to 1000 nM,Cn1c(C#CC2CCN(C(=O)/C=C/CN3CCOCC3)CC2)c(-c2ccc(Oc3ccccc3)cc2)c2c(N)ncnc21 [III-41]
11,1000 to 10000 nM,C=CC(=O)N1C[C@@H]2[C@@H](C#Cc3c(-c4ccc(Oc5cccc(C)n5)c(OC)c4)c4c(N)nccc4n3CCOC)[C@@H]2C1 [II-78]
12,10 to 1000 nM,C=CC(=O)N1CCC(N2CC(C#Cc3c(-c4ccc(Oc5ccccc5)cc4)c4c(N)ncnc4n3C(C)CO)C2)CC1 (stereo not drawn) [III-60]
13,10 to 1000 nM,C=CC(=O)N1CC[C@@H](N2CC(C#Cc3c(-c4ccc(Oc5ccccc5)cc4)c4c(N)ncnc4n3C)C2)[C@H](C)C1 [III-66]
14,10 to 1000 nM,C=CC(=O)N1CCC(N2CC(C#Cc3c(-c4ccc(Oc5ccccn5)c(OC)c4)c4c(N)ncnc4n3C)C2)C(S(C)(=O)=O)C1 (stereo not drawn) [III-87]
15,≤ 10 nM,C=CC(=O)N1CCC(N2CC(C#Cc3c(-c4ccc(Oc5ccccc5)cc4)c4c(N)ncnc4n3[C@H]3C[C@@H](O)C3)C2)CC1 [III-70]
16,10 to 1000 nM,Cn1c(C#CC2CN(C(=O)/C=C/CN3CCC3)C2)c(-c2ccc(Oc3ccccc3)cc2)c2c(N)ncnc21 [III-81]
17,10 to 1000 nM,C=CC(=O)N1CC[C@@H](C#Cc2c(-c3ccc(Oc4ccccc4)cc3)c3c(N)ncnc3n2C)C[C@@H]1C [III-79]
18,10 to 1000 nM,CC(C)n1c(C#Cc2cnn(C)c2)c(-c2ccc(Oc3ccccc3)cc2)c2c(N)ncnc21 [III-7]
19,10 to 1000 nM,Cn1c(C#CC2CN(C(=O)/C=C/CN3CC(O)C3)C2)c(-c2ccc(Oc3ccccc3)cc2)c2c(N)ncnc21 [III-78]
20,10 to 1000 nM,C=CC(=O)N1CCC(C#Cc2c(-c3ccc(Oc4ccccc4)cc3)c3c(N)ncnc3n2C2CCOC2)C1 (stereo not drawn) [III-21]

row,IC50,Molecule
1,10 to 1000 nM,C=C(C)C(=O)N1CCC(C#Cc2c(-c3ccc(Oc4ccccc4)cc3)c3c(N)ncnc3n2[C@H]2CCOC2)CC1 [III-37]
2,10 to 1000 nM,C=CC(=O)N1CCC(N2CC(C#Cc3c(-c4ccc(Oc5ccccc5)c(C)c4)c4c(N)ncnc4n3C)C2)CC1 [III-83]
3,10 to 1000 nM,C=CC(=O)N1CCC(N2CC(C#Cc3c(-c4ccc(Oc5ccccc5)cc4)c4c(N)ncnc4n3[C@H]3C[C@H](O)C3)C2)CC1 [III-68]
4,10 to 1000 nM,Cn1c(C#CC2(O)CCN(C(=O)/C=C/CN3CCOCC3)CC2)c(-c2ccc(Oc3ccccc3)cc2)c2c(N)ncnc21 [III-39]
5,10 to 1000 nM,C=CC(=O)N[C@H]1CC[C@H](C#Cc2c(-c3ccc(Oc4ccccc4)cc3)c3c(N)ncnc3n2C)CC1 [III-58]
6,10 to 1000 nM,CC(CO)n1c(C#CC2CCN(C(=O)/C=C/CN(C)C)C2)c(-c2ccc(Oc3ccccc3)cc2)c2c(N)ncnc21 (stereo not drawn) [III-32]
7,≤ 10 nM,CC(C)n1c(C#CC2CCN(C(=O)/C=C/CN(C)C)C2)c(-c2ccc(Oc3ccccc3)cc2)c2c(N)ncnc21 (stereo not drawn) [III-12]
8,10 to 1000 nM,C=CC(=O)NC1CCN(C2CC(C#Cc3c(-c4ccc(Oc5ccccc5)cc4)c4c(N)ncnc4n3C)C2)CC1 (stereo not drawn) [III-51]
9,10 to 1000 nM,C=CC(=O)N1CCC(C#Cc2c(-c3ccc(Oc4cccc(C)c4)cc3)c3c(N)ncnc3n2C(C)C)CC1 [Example I-21]
10,10 to 1000 nM,CN(C)C/C=C/C(=O)N1CCC(C#Cc2c(-c3ccc(Oc4ccccc4)cc3)c3c(N)ncnc3n2C2CCOC2)CC1 (stereo not drawn) [III-10]
11,10 to 1000 nM,C=CC(=O)N[C@H]1CC[C@@H](C#Cc2c(-c3ccc(Oc4ccccc4)cc3)c3c(N)ncnc3n2C)CC1 [III-57]
12,10 to 1000 nM,C=CC(=O)N1CCC(C#Cc2c(-c3ccc(Oc4cnccn4)cc3)c3c(N)ncnc3n2C(C)C)CC1 [Example I-14]
13,10 to 1000 nM,C=CC(=O)N1CC[C@H](C#Cc2c(-c3ccc(Oc4ccccc4)cc3)c3c(N)ncnc3n2C)C[C@@H]1C [III-77]
14,10 to 1000 nM,C=CC(=O)N1CCC(O)(C#Cc2c(-c3ccc(Oc4ccccc4)c(Cl)c3)c3c(N)ncnc3n2C)CC1 [III-59]
15,10 to 1000 nM,C=CC(=O)N1CCC(C#Cc2c(-c3ccc(Oc4ccccc4)nc3)c3c(N)ncnc3n2C(C)C)CC1 [Example I-10]
16,10 to 1000 nM,Cn1c(C#CC2CC3(C2)CN(C(=O)/C=C/CN2CCOCC2)C3)c(-c2ccc(Oc3ccccc3)cc2)c2c(N)ncnc21 [III-71]
17,10 to 1000 nM,C=CC(=O)N1CC[C@H](N2CC(C#Cc3c(-c4ccc(Oc5ccccc5)cc4)c4c(N)ncnc4n3C)C2)[C@H](C)C1 [III-65]
18,10 to 1000 nM,CC(C)n1c(C#CC2CCOCC2)c(-c2ccc(Oc3ccccc3)cc2)c2c(N)ncnc21 [III-8]
19,≤ 10 nM,C=CC(=O)N1CCC(N2CC(C#Cc3c(-c4ccc(Oc5ccccc5)cc4)c4c(N)ncnc4n3[C@@H]3CCOC3)C2)CC1 [III-55]
20,10 to 1000 nM,CN(C)C/C=C/C(=O)N1CCC(C#Cc2c(-c3ccc(Oc4ccccc4)cc3)c3c(N)ncnc3n2C2CCOC2)C1 (stereo not drawn) [III-18]

row,IC50,Molecule
1,10 to 1000 nM,CN(C)C/C=C/C(=O)N1CCC(C#Cc2c(-c3ccc(Oc4ccccc4)cc3)c3c(N)ncnc3n2C)C1 (stereo not drawn) [III-22]
2,10 to 1000 nM,C=CC(=O)N1CCC(N2CC(F)(C#Cc3c(-c4ccc(Oc5cccc(C)n5)c(OC)c4)c4c(N)ncnc4n3C)C2)C[C@H]1COC (stereo partly drawn) [III-92]
3,≤ 10 nM,"CC(C)n1c(C#CC2CCC(N)CC2)c(-c2ccc(Oc3ccccc3)cc2)c2c(N)ncnc21 (stereo not drawn) [II-151, 6-((4-aminocyclohexyl)ethynyl)-7-isopropyl-5-(4-phenoxyphenyl)-7H-pyrrolo[2,3-d]pyrimidin-4-amine]"
4,10 to 1000 nM,C=CC(=O)N1CCC(N2CC(C#Cc3c(-c4ccc(Oc5ccccc5)cc4F)c4c(N)ncnc4n3C)C2)CC1 [III-82]
5,10 to 1000 nM,C=CC(=O)N1CCC(C#Cc2c(-c3ccc(Oc4cccc(F)c4)cc3)c3c(N)ncnc3n2C(C)C)CC1 [Example I-28]
6,10 to 1000 nM,C=CC(=O)N1CCC(N2CC(C#Cc3c(-c4ccc(Oc5ccccc5)cc4)c4c(N)ncnc4n3C)C2)CC1 [III-25]
7,10 to 1000 nM,CN(C)C/C=C/C(=O)N1CC2(C1)CC(O)(C#Cc1c(-c3ccc(Oc4ccccc4)cc3)c3c(N)ncnc3n1C)C2 [III-26]
8,1000 to 10000 nM,C=CC(=O)NCC#Cc1c(-c2ccc(Oc3ncccn3)c(OC)c2)c2c(N)ncnc2n1C [III-94]
9,10 to 1000 nM,C#Cc1c(-c2ccc(Oc3ccccc3)cc2)c2c(N)ncnc2n1C(C)C [III-6]
10,≤ 10 nM,C=CC(=O)N[C@@H](C)C(=O)N1CCC(C#Cc2c(-c3ccc(Oc4ccccc4)cc3)c3c(N)ncnc3n2C)CC1 [III-45]
11,10 to 1000 nM,"C=CC(=O)N1CCC(C#Cc2c(-c3ccc(Oc4ccccc4)cc3)c3c(N)ncnc3n2[C@H](C)CO)CC1 (single isomer, unassigned) [Example I-24]"
12,≤ 10 nM,C=CC(=O)N1CCC(N2CC(C#Cc3c(-c4ccc(Oc5ccccc5)cc4)c4c(N)ncnc4n3C3CCOC3)C2)CC1 (stereo not drawn) [III-53]
13,10 to 1000 nM,C=C(C)C(=O)N1CCC(C#Cc2c(-c3ccc(Oc4ccccc4)cc3)c3c(N)ncnc3n2C)CC1 [III-40]
14,10 to 1000 nM,C=CC(=O)N1CCC(C#Cc2c(-c3ccc(Oc4cccnc4)cc3)c3c(N)ncnc3n2C(C)C)CC1 [Example I-11]
15,10 to 1000 nM,C=CC(=O)N1CCC(C#Cc2c(-c3ccc(Oc4ccccc4)cc3)c3c(N)ncnc3n2C)C1 (stereo not drawn) [III-11]
16,1000 to 10000 nM,C=CC(=O)N1CCC(O)(C#Cc2c(-c3ccc(Oc4ccccc4)c(C#N)c3)c3c(N)ncnc3n2C)CC1 [III-54]
17,10 to 1000 nM,CN(C)C/C=C/C(=O)N1CC(C#Cc2c(-c3ccc(Oc4ccccc4)cc3)c3c(N)ncnc3n2C)C1 [III-84]
18,10 to 1000 nM,CN(C)C/C=C/C(=O)N1CCC(C#Cc2c(-c3ccc(Oc4ccccc4)cc3)c3c(N)ncnc3n2C)CC1 [III-14]
19,10 to 1000 nM,"COC(=O)C(C)N1CCC(C#Cc2c(-c3ccc(Oc4ccccc4)cc3)c3c(N)ncnc3n2C(C)C)CC1 (stereo not drawn) [II-148, methyl 2-(4-((4-amino-7-isopropyl-5-(4-phenoxyphenyl)-7H-pyrrolo[2,3-d]pyrimidin-6-yl)ethynyl)piperidin-1-yl)propanoate]"

row,Molecule,IC50
1,"N-[(1r,4r)-4-[2-[4- amino-7-(2- hydroxyethyl)-5- [3-methoxy-4-[(6- methylpyridin-2- yl)oxy]phenyl]- 7H-pyrrolo[2,3- d]pyrimidin-6- yllethynyl] cyclohexyl] prop-2- enamide [II-311]",≤ 10 nM
